{"source": "patent US20250169496A1", "about": "“USE OF 2-AMINO-3-HYDROXY-3-METHYLBUTYRIC ACID AND/OR 2-AMINO-3-(4-HYDROXYPHENYL) BUTYRIC ACID” (NANJING TIANNONG BIOTECHNOLOGY CO., LTD., priority 2021, published 2025)", "origin": "cited, not measured here", "tested_on": "Lactobacihs arabinosu", "settings": "cited from earlier work", "data": [{"smiles": "CC(C)(O)[C@H](N)C(=O)O", "note": "[L-2-amino-3-hydroxy-3-methylbutyric acid]", "values": [{"measurement": "Inhibition of the synthesis of valine", "result": "could inhibit the synthesis of valine"}]}]}
